Test results published in a melting point compilation (Tetko et al.; mined from patent text by program, amines drawn as free bases though some values may be those of a salt).

| SMILES | melting point |
| --- | --- |
| CCN(CC)C(=O)c1cnn(C)c1C(=O)Nc1ccn2nc(N3CCOCC3)nc2c1 | 165 to 167 °C |
| Cc1nc2n(C)nc(C)n2c(=O)c1CCCl | 140 °C |
| COCCOc1ccc(CCNC(=O)/C=C/c2cccs2)cc1S(=O)(=O)NC(=S)NC(C)C | 101 °C |
| CC1=CC2=C(N3CN(O)C=C3N=N2)N(c2ccccc2Cl)C1 | 300 °C |
| N#Cc1ncccc1CCc1cccc(Cl)c1 | 72 to 73 °C |
| COc1ccc(N2CCN(CCn3c(=O)[nH]c4ccsc4c3=O)CC2)cc1 | 130 to 131 °C |
| CC(CSc1nn(-c2ccccc2)c2c1CCC2)C(=O)O (centres undefined) | 84 to 85 °C |
| COc1c(C(O)CNC(C)(C)Cc2c(C)c(C)cc(C)c2C)ccc(O)c1O (centres undefined) | 165 to 168 °C |
| CCCCCCSc1nnc(N)s1 | 113 to 115 °C |
| Nc1cc(Cl)cc(Cl)c1I | 61 to 63 °C |
| C[C@@H](N(CCOCc1ccccc1)C(=O)c1ccc(OCC(F)(F)C(F)F)cc1)[C@](O)(Cn1cncn1)c1ccc(Cl)cc1Cl (relative stereo) | 51 to 62 °C |
| CC(Nc1cc(Cl)nc(SCC(=O)O)n1)c1ccc(Cl)cc1 (centres undefined) | 155 to 160 °C |
| COc1cccc(OC)c1C(=O)P(=S)(C(=O)c1c(OC)cccc1OC)c1ccccc1 | 155 °C |
| CCCCOc1nc(N)c2nc(OC)n(CCCCNCCOC)c2n1 | 99 to 100 °C |
| COC(=O)CCC(=O)c1ccc2c(c1)CC(CCCCNC(C)=O)C2 (centres undefined) | 94 to 95 °C |
| COc1ccc(-c2cccc(C(=O)NO)c2C)cc1OCCCCCc1ccccc1 | 125 to 126 °C |
| CN(C)C=CC(=O)c1c[nH]c2ccccc12 | 239 to 245 °C |
| Cc1ccccc1N1CCN(CCCCCC(=O)O)CC1 | 125 °C |
| COc1ccc(S(=O)(=O)C2(C(=O)NO)CCN(Cc3ccc(-c4ccccc4)cc3)CC2)cc1 | 168 °C |
| CC(=O)N[C@@H](C)COC1CCN(c2nc3ccc(OCC4CC4)cc3o2)CC1 | 120 °C |

| SMILES | melting point |
| --- | --- |
| CC(=O)Nc1ccc2nc(CN(C(C)C)C(C)C)ccc2c1 | 147 to 148 °C |
| N#Cc1c(N)nc2ccccc2c1NCc1ccccc1 | 206 °C |
| CC1=C(C#N)C(c2cccc3ncc(Cc4ccccc4)cc23)C(C(=O)OC(C)C)=C(C)N1 (centres undefined) | 188 to 190 °C |
| CCCNC(=O)c1ccsc1N=C(OCCC)OCCC | 57 to 58 °C |
| O=C(O)c1cn(C2CC2)c2c(F)c(N3CCOC(CN4CCCCC4)C3)c(F)cc2c1=O (centres undefined) | 160 to 162 °C |
| CC(=O)OCOC(c1ccccc1)n1cc(F)c(=O)[nH]c1=O (centres undefined) | 108 to 109 °C |
| CCOCCOC(=O)C(=O)Nc1nc(-c2ccc(OC)cc2OC)cs1 | 118 to 120 °C |
| CCc1cn(C2CC(O)C(CNC(=O)Cc3ccccc3N)O2)c(=O)[nH]c1=O (centres undefined) | 195 to 196 °C |
| NC(=O)CNC(=O)c1cccc(-c2cccc3cc(Cc4cccc(CO)c4)sc23)c1 | 155 to 156 °C |
| CC(NC(=S)NCC(COC(=O)C(C)(C)C)Cc1ccccc1)c1ccc(NS(C)(=O)=O)cc1 (centres undefined) | 58 to 62 °C |
| O=c1c2ccccc2oc2c(CBr)cccc12 | 191 to 192 °C |
| Fc1ccc(-c2cc3c(cc2Br)OCO3)cc1 | 86 to 87.5 °C |
| CN1CCC2(CCc3c(C4=C(c5cn(C)c6ccccc56)C(=O)OC4=O)c4ccccc4n3C2)C1 (centres undefined) | 238 to 240 °C |
| CC(C)(C)c1cc(Nc2ccc(CCC(=O)O)cc2)cc(C(C)(C)C)c1O | 140 to 142 °C |
| OC1CSC(Oc2cncc(-c3ccc(F)cc3F)c2)C(O)C1O (centres undefined) | 221 °C |
| NCC1CCN(Cc2ccccc2)CC1 | 88 °C |
| CCOC(=O)/C=C/c1cn(-c2ccc(C(F)(F)F)cc2)nc1OCc1ccc(OCc2nc(-c3ccccc3)oc2C)c(OC)c1 | 205 to 206 °C |
| CCNC(=O)OCCOc1ccc(Oc2ccc(F)cc2)cc1Cl | 42 to 43 °C |
| C(=C\c1cc(/C=C/c2c[nH]c3ccccc23)n[nH]1)/c1cccc(OCc2ccccn2)c1 | 198 to 201 °C |
